Literature values, collected in patent US4806659A, “Tannin compounds” (Kabushiki Kaisha Tsumura Juntendo, priority 1985, dated 1989).

conditions: known drugs, schizophrenia

Which sedative effect does the source give for `COc1ccc2c(c1)N(C[C@H](C)CN(C)C)c1ccccc1S2` [Levomepromazine] here?
Its sedative effect is “strong sedative effect”.

For `CN(C)CCCN1c2ccccc2Sc2ccc(Cl)cc21` [chlorpromazine], which sedative effect is on record?
Its sedative effect is “strong sedative effect”.

Which “anti-hallucination and -delution effects” value does the source give for `OCCN1CCN(CCCN2c3ccccc3Sc3ccc(C(F)(F)F)cc32)CC1` [fluphenazine] here?
Its value is “strong anti-hallucination and -delution effects”.

Which “anti-hallucination and -delution effects” value does the source give for `O=C(CCCN1CCC(O)(c2ccc(Cl)cc2)CC1)c1ccc(F)cc1` [haloperidol] here?
Its value is “strong anti-hallucination and -delution effects”.

For `OCCN1CCN(CCCN2c3ccccc3Sc3ccc(Cl)cc32)CC1` [perphenazine], which “anti-hallucination and -delution effects” value is on record?
The value was “strong anti-hallucination and -delution effects”.

With `CCN1CCCC1CNC(=O)c1cc(S(N)(=O)=O)ccc1OC` (stereo not drawn) [sulpiride] as the compound, how does the sedative effect read?
Its sedative effect is “mild sedative effect”.
